The term Ki denotes the equilibrium dissociation constant of an inhibitor or competing ligand from its target. Higher therefore signals a looser hold on the target.

The target of the experiment is Human immunodeficiency virus type 1 protease (Human immunodeficiency virus 1, UniProt Q72874). Put plainly: Ability to inhibit HIV protease purified and refolded from Escherichia coli inclusion bodies.

The molecule `CCC(Cc1ccccc1)c1cc(O)c(C(c2cccc(NC(=O)Cc3ccncc3)c2)C2CC2)c(=O)o1` (stereo not drawn) gave an inhibitory constant (Ki) of 44 nM.

In turn, `CCC(Cc1ccccc1)c1cc(O)c(C(c2cccc(NC(=O)[C@H](Cc3c[nH]cn3)NC(=O)OC(C)(C)C)c2)C2CC2)c(=O)o1` (stereo partly drawn) came in with a Ki of 4 nM.

`CCC(c1cccc(C(=O)N[C@H](C(=O)NCc2ccccn2)C(C)CC)c1)c1c(O)oc2ccccc2c1=O` (stereo partly drawn): the inhibitory constant (Ki) was determined as 400 nM. This Ki lies about 100-fold higher than the previous one.

`CCC(c1cccc(C(=O)NCc2nc3ccccc3[nH]2)c1)c1c(O)oc2ccccc2c1=O` (stereo not drawn): the Ki was determined as 4400 nM.

`CCC(c1cccc(NC(=O)CCNC(=O)OC(C)(C)C)c1)c1c(O)oc2cc(OC)ccc2c1=O` (stereo not drawn) had an inhibitory constant (Ki) of 170 nM.

`CC(C)(C)OC(=O)NCCC(=O)Nc1cccc(C(c2c(O)oc3ccccc3c2=O)C2CC2)c1` (stereo not drawn): affinity was put at a Ki of 86 nM. This Ki is about 2-fold lower than that of the molecule before.

In turn, `COc1ccc2c(O)c(C(c3ccccc3)C3CC3)c(=O)oc2c1` (stereo not drawn) came in with a Ki of 170 nM.

Molecule `CCC(Cc1ccccc1)c1cc(O)c(C(c2cccc(NC(=O)[C@H](C)NC(=O)OC(C)(C)C)c2)C2CC2)c(=O)o1` (stereo partly drawn) had a Ki of 15 nM.

Molecule `CCC(Cc1ccccc1)c1cc(O)c(C(c2cccc(NC(=O)[C@H](Cc3cn(S(=O)(=O)c4ccc(C)cc4)cn3)NC(=O)OC(C)(C)C)c2)C2CC2)c(=O)o1` (stereo partly drawn) showed a Ki of 19 nM.

Turning to `O=c1oc2ccccc2c(O)c1C(c1ccccc1)C1CC1` (stereo not drawn), the Ki stood at 350 nM.

With `CCC(c1cccc(NC(=O)CCNC(=O)OC(C)(C)C)c1)c1c(O)c2ccccc2oc1=O` (stereo not drawn), the Ki was 280 nM.

Molecule `CCC(c1cccc(NC(=O)[C@H](C)NC(=O)OC(C)(C)C)c1)c1c(O)c2ccccc2oc1=O` (stereo partly drawn) came in with a Ki of 170 nM. This Ki is about 1.6-fold lower than that of the molecule before.

Turning to `CCC(c1cccc(NC(=O)CCCNC(=O)OC(C)(C)C)c1)c1c(O)c2ccccc2oc1=O` (stereo not drawn), affinity was put at a Ki of 1600 nM.

Molecule `CCC(c1ccccc1)c1c(O)c2ccc(OC)cc2oc1=O` (stereo not drawn) had an inhibition constant (Ki) of 560 nM.

The molecule `CCC(c1cccc(NC(=O)[C@@H]2CCCN2C(=O)OC(C)(C)C)c1)c1c(O)c2ccccc2oc1=O` (stereo partly drawn) showed a Ki of 3600 nM.

Consider `CCC(c1cccc(NC(=O)CCn2ccc3ccccc32)c1)c1c(O)c2ccccc2oc1=O` (stereo not drawn), for which the Ki came to 110 nM.

Molecule `CCC(c1cccc(NC(=O)CNC(=O)OC(C)(C)C)c1)c1c(O)c2ccccc2oc1=O` (stereo not drawn) had a Ki of 160 nM. The Ki values of the last two molecules are within 1.5-fold of each other.

Molecule `COc1ccc2c(O)c(C(c3cccc(NC(=O)CCNC(=O)OC(C)(C)C)c3)C3CC3)c(=O)oc2c1` (stereo not drawn) gave a Ki of 28 nM.

Source of the values: ChEMBL document CHEMBL1128607, “Structure-based design of novel HIV protease inhibitors: carboxamide-containing 4-hydroxycoumarins and 4-hydroxy-2-pyrones as potent nonpeptidic inhibitors” (J Med Chem, 1995).
